Test results taken from PMC9993459, “A novel selective spleen tyrosine kinase inhibitor SKI-O-703 (cevidoplenib) ameliorates lupus nephritis and serum-induced arthritis in murine models” (Clinical and Experimental Immunology, 2022).

Columns and labels:
AuroraB = AuroraB (Homo sapiens, UniProt Q96GD4); experiment: Kinase assay (LANCE Ultra TR-FRET), AuroraB; assay type: biochemical
Experimental: Kinase assays were conducted in 384-well plates using LANCE ultra 66 time-resolved fluorescence resonance energy transfer (TR-FRET) methods, according to the manufacturer’s instructions (Perkin-Elmer). In brief, each kinase was pre-incubated with a serially diluted compound for 30 min, incubated with ULight poly-GT peptide substrate and ATP for up to 1 h. Thirty minutes after adding Eu-labeled anti-phosphopeptides Ab diluted in LANCE Detection Buffer, LANCE signals were measured with an EnVision multilabel reader (Perkin-Elmer).

mouse primary B cells = experiment: CP670-dilution proliferation assay, BCR crosslinking (anti-IgM) stimulated B cells; assay type: cell-based; conditions: 0.1–5 μM, CP670 dilution, 72 h
Experimental: Splenic CD19^+ B cells from C57BL/6 mice were sorted by MACS (Milteny Biotec), stained with 3 μM cell proliferation dye eFluor 670 (CP670; eBioscience), and cultured for 72 h in the presence of either 10 μg/ml LPS (Sigma Aldrich) or 5 μg/ml anti-mouse IgM (Jackson Immuno Research Laboratories), 10 μg/ml anti-CD40 mAb (Biolegend) and 10 ng/ml IL-4 (Peprotech), and assayed by FACS. To detect apoptotic cells, unstimulated cells were cultured for 24 h, stained with Annexin V and 7-aminoactinomycin D (7-AAD), and assayed by FACS.
Figure 2: in vitro effects of SKI-O -703 on the proliferation, survival, and differentiation of B cells. Mouse primary B cells were labeled with CP670, and stimulated with either anti-IgM mAb, CD40L and IL-4 (A) or LPS (B) for 72 h in the presence or absence of SKI-O-703 and tofacitinib at the indicated concentrations; they were then assayed by FACS. (C and D) Mouse primary B cells were cultured as in A and B for 24 h, stained with Annexin V and 7-AAD, and assayed by FACS. Representative FACS profiles and graphs displaying mean Annexin V-positivity are shown. (E) Human primary B cells were stimulated with CpG ODN plus IL-2 (to detect IgM and IgG) or CpG ODN 2006 plus IFN-α (to detect IL-6) in the presence or absence of inhibitors. The culture supernatants were assayed by ELISA. Graphs are expressed as % positivity relative to the controls (without inhibitor). […]

NZB/W F1 mice = experiment: NZB/W mouse model of SLE / lupus nephritis, oral dosing; assay type: in vivo
Experimental: NZB/W female mice aged 18 weeks were assigned to four groups by distributing mice by body weight and anti-dsDNA IgG titer equivalently across the groups. Each group of mice was administered orally with 42 mg per kg body weight (mpk) of SKI-O-703 dissolved in 50 mM citric acid, 84 mpk of SKI-O-703, 30 mpk of tofacitinib (Selleckchem) dissolved in 0.5% carboxymethyl cellulose (Sigma Aldrich) containing 0.025% Tween 20, or a mixture of the two vehicles. The drugs were given once daily up to 34 weeks of age. Body weight was measured every 2 weeks and serum was collected every 4 weeks. At the termination of the experiments (34 weeks of age), serum, urine, spleen, BM, and kidneys were removed post mortem and assayed by histopathological and biochemical methods as below. Levels of blood urea nitrogen (BUN) and creatinine were measured by Knotus (Incheon, Korea).
Kidneys removed from the NZB/W mice were fixed in 4% paraformaldehyde, embedded in paraffin, sectioned at 3 μm thickness, and stained with periodic acid-Schiff (PAS) and hematoxylin (Sigma Aldrich). […] Glomerular size was measured using Image J software. To assess the glomerular size and hypercellularity of each mouse, more than 20 glomeruli per mouse were individually examined and averaged.
Kidneys and spleens of NZB/W mice were embedded in OCT compound (Sakura Finetek, Torrance, CA, USA) and snap-frozen in liquid nitrogen. Frozen sections were fixed in acetone and blocked with 10% normal donkey serum (Sigma Aldrich). Kidney sections were stained with a 1:200 dilution of anti-IgG-biotin (Sigma Aldrich), anti-IgM-biotin (Southern Biotech) and anti-C3-biotin (Bioss), followed by reaction with 1:200-dilution of streptavidin-cy3 (Invitrogen). Spleen sections were stained with anti-GL7-FITC, anti-CD4-APC, and anti-IgD-PE (all from BD Biosciences or eBioscience). Fluorescence images were acquired using a TCS SP5 confocal microscope (Leica). The area of GCs composed with GL7^+ cells per image was calculated using ImageJ software (NIH, Bethesda, MD, USA).
Titers of anti-dsDNA IgG Ab were measured by ELISA, as described previously. In brief, sera were diluted 1/10 000 to 1/50 000 in PBS and applied to immunosorbent plates (Nunc) precoated with 5 μg/ml poly-L-lysine and 5 μg/ml thymic DNA (Sigma Aldrich). The serum containing the highest titer of anti-dsDNA IgG was serially diluted and used as standard. The plates were incubated with anti-mouse IgG-biotin (Sigma Aldrich) and streptavidin-HRP (BD Biosciences). The concentration of albumin in urine was measured by quantitative ELISA using a mouse albumin ELISA kit (Bethyl), according to the manufacturer’s instructions. The concentration of serum B-cell activating factor of the TNF family (BAFF) was quantitated using a BAFF/BLys/TNFSF13B ELISA Kit (R&D Systems).
Single-cell suspensions of spleen and LN cells were prepared as previously described. Joint tissues from hind paws of KSTA mice were dissected free of soft tissue and bones, digested with 100 μg/ml Liberase (Roche) for 45 min at 37 °C, and filtered through a 70-μm-pore cell strainer (SPL Life Sciences) to prepare single cell suspensions of synovial infiltrates. The single cell suspensions were stained with an appropriate combination of mAbs and analyzed by FACS. The mAbs used were: CD138-PE, B220-PerCP or -APC-cy7, FAS-PE, CD19-PerCP or -APC, CD21-FITC or -APC, CD43-APC, CD23-PE-cy7, CD8a-PE, CD25-APC-cy7, CXCR5-biotin, GL7-FITC, CD45.2-FITC, CD27-FITC, Ki-67-FITC, Gr-1-FITC, CD4-FITC or -APC-cy7, phospho-Syk-PE, CD11b-PE or -PerCP, PD-1-APC, CD44-APC-cy7, and F4/80-PerCP mAbs (all from BD Biosciences, eBioscience or Biolegend). Streptavidin-PerCP was purchased from BD Biosciences.
Splenic CD19^+ B cells from NZB/W mice were sorted by MACS, and lysed with Trizol reagent (Invitrogen) followed by standard methods of total RNA purification. The RNA was assayed by RT and quantitative PCR as described. […]

[1] = 84 mpk oral once daily, 18-34 weeks of age
[2] = high dose (84 mpk), 34 weeks, FACS

AuroraB, sequence (Q96GD4 whole entry): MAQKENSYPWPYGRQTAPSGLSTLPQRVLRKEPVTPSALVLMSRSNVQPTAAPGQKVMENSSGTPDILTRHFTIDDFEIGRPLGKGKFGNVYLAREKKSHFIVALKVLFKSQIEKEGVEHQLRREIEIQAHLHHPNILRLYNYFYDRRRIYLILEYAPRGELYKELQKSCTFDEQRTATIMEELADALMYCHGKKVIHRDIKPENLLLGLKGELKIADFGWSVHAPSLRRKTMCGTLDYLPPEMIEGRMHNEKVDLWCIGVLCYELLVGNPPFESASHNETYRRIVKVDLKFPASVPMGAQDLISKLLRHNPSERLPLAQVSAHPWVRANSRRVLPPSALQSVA

Row | Structure (SMILES) | Ratio to Syk (AuroraB) (AuroraB; IC50 ratio to Syk) | IC50 (AuroraB; kinase activity, TR-FRET) | BCR crosslinking-induced proliferation (mouse primary B cells) | Concentrations of BUN and creatinine (NZB/W F1 mice; 42 mpk (low-dose), 34 weeks of age) | Rise of serum anti-dsDNA IgG Ab level (NZB/W F1 mice; 42 mpk oral once daily) | Glomerular IgM and C3 staining intensities (NZB/W F1 mice; 84 mpk (high dose)) | Concentrations of BUN and creatinine (NZB/W F1 mice; 84 mpk (high-dose), 34 weeks of age) | Body weights (NZB/W F1 mice; [1]) | Spleen weights (NZB/W F1 mice; [1]) | Rise of serum anti-dsDNA IgG Ab level (NZB/W F1 mice; 84 mpk oral once daily, P < 0.01 by two-way ANOVA) | Concentration of urinary albumin (NZB/W F1 mice; 84 mpk, 34 weeks of age, vehicle mean 742.9 mg/dl) | Number of splenic T cells (NZB/W F1 mice; [2]) | Total spleen cells (NZB/W F1 mice; [2]) | CXCR5+PD-1+ Tfh cells (NZB/W F1 mice; high dose (84 mpk), spleen) | Splenic follicular, GC B cells and plasma cells (NZB/W F1 mice; high dose (84 mpk), vs vehicle controls) | Level of serum BAFF (NZB/W F1 mice; high dose, ELISA) | BAFF receptor expression in splenic B cells (NZB/W F1 mice; high dose, quantitative RT-PCR) | BM hematopoiesis (NZB/W F1 mice; long-term treatment (16 weeks))
1 | Cc1nn(-c2ccnc(Nc3ccc4c(c3)c(C(=O)C3CC3)cn4C)n2)cc1CN1C[C@H](O)CO1 [SKI-O-592] | >1623 | > 10 µM | – | – | – | – | – | – | – | – | – | – | – | – | – | – | – | –
2 | CS(=O)(=O)O.CS(=O)(=O)O.Cc1nn(-c2ccnc(Nc3ccc4c(c3)c(C(=O)C3CC3)cn4C)n2)cc1CN1C[C@H](O)CO1 [SKI-O-703, (S)-cyclopropyl(5-((4-(4-((4-hydroxyisoxazolidin-2-yl)methyl)-3-methyl-1H-pyrazol-1-yl)pyrimidin-2-yl)amino)-1-methyl-1H-indol-3-yl)methanone dimesylate] | – | – | inhibited BCR crosslinking-induced proliferation in a concentration-dependent manner | significantly lowered | did not have the same effect, and even temporarily elevated the Ab titer | significantly reduced | significantly lowered | without significantly affecting body weights | significantly reduced spleen weights | dramatically attenuated | markedly reduced | not significantly altered | significantly less numerous | reduced in number | significantly less numerous | also reduced | reduced level | appeared not to interfere with BM hematopoiesis
